These results are taken from a melting point compilation (Tetko et al.; mined from patent text by program, amines drawn as free bases though some values may be those of a salt).

Molecules are shown by their SMILES.

The term melting point denotes the temperature of the solid-liquid transition. For `c1ccc(-c2cc3nnc(-c4ccccc4)n3nc2OCc2cn[nH]n2)cc1`, the melting point is 208 to 220 °C.

With `Cc1cccc(C)c1C1CCN(Cc2cc3ccccc3[nH]2)CC1`, the melting point was in the range of 128 to 130 °C.

In turn, `CCOC(=O)Cc1ccc(Cc2nc3c(F)c(F)cc(F)c3s2)cc1` registered a melting point of 75 to 77 °C.

`COc1cc(CNc2ccc3c(c2)N2CCCN=C2S3)cc(OC)c1OC` showed a melting point of 191 °C.

As for `Cc1nc(C)c(Cn2nnnc2-c2cccc(Cl)c2Cl)s1`, the melting point is 174 to 175 °C.

Molecule `O=[N+]([O-])c1cc(Br)cc(Br)c1` displayed a melting point of 102 to 104 °C.

As for `O=C1NOCc2ccccc21`, the melting point lay in the range of 123 to 125 °C.

As for `CC(=O)CC(=O)Nc1ccc(C(F)(F)F)cc1`, the melting point lay within 144 to 145 °C.

In turn, `COc1ccc(C(=O)Nc2ccccc2)cc1N(S(=O)(=O)c1cc(Cl)cc(Cl)c1)S(=O)(=O)c1cc(Cl)cc(Cl)c1` displayed a melting point of 228 to 231 °C.

Molecule `CC(CS)C(=O)N1c2ccccc2CCC1C(=O)O` (centres undefined) displayed a melting point of 98 to 101 °C.

In turn, `Cc1ccc(S(=O)(=O)OCC(O)(CC(C)c2ccccc2)C(F)(F)F)cc1` (centres undefined) came in with a melting point of 95 to 96 °C.

Consider `Cc1ccccc1Cn1c(OCc2ccccc2)noc1=O`, for which the melting point was in the range of 77 to 78 °C.

In turn, `CNC(=O)[C@@H](NC(=O)[C@H](CC(=O)O)CC(C)C)C(C)(C)C` yielded a melting point of 204 to 205 °C.

Molecule `CCCCCCCCCCCCCCC1CC(=O)N(NC(=O)CCc2cc(C(C)(C)C)c(O)c(C(C)(C)C)c2)C1=O` (centres undefined) registered a melting point of 70 to 77 °C.

`N#Cc1c(N2CCCCC2)cc(-c2ccc(F)cc2)c2c1-c1ccccc1C2` showed a melting point of 176 to 178 °C.

Turning to `COc1nc(OC)nc(OC(=O)c2cccc3cc(O)ccc23)n1`, the melting point lay in the range of 166 to 168 °C.

Molecule `Cn1ccc(C(=O)c2ccccc2)c1` returned a melting point of 90 to 93 °C.

As for `COc1cc(-c2csc(N)n2)c(OC)cc1C`, the melting point is 191 to 192 °C.

As to `CCc1cc(=O)n(-c2cc(C(=O)OC(C)C)c(Cl)cc2F)c(=O)[nH]1`, the melting point was 121 to 124 °C.

In the case of `CC(=CC(=O)O)c1cccc([N+](=O)[O-])c1`, the melting point lay within 147 to 149 °C.

As for `COc1ccc2c(CNCCCCCC(=O)O)cc3cc(OC)c(OC)cc3c2c1`, the melting point is 133 to 134 °C.

Regarding `Cc1sc(-c2ccccc2)nc1COc1ccc(COc2ncccc2CC(=O)O)cc1`, the melting point fell in the range of 128 to 129 °C.

`COC(=O)c1nsc(S)n1` returned a melting point of 126 to 127 °C.

`CCn1cc(-c2nc(C(N)=O)c(N)nc2-c2ccccc2)ccc1=O` gave a melting point above 250 °C.

As to `CN1C(=O)NC(Cc2ccccc2)C1=O` (centres undefined), the melting point stood at 172 °C.

On to `Cc1oc(-c2ccccc2)nc1COc1ccc(COc2cncc(CC(=O)O)c2)cc1`, for which the melting point was in the range of 139 to 140 °C.

`COCc1cnc2c(NC(=O)c3c(Cl)cccc3Cl)cccc2c1N1CCNC1=O` registered a melting point of 210 to 212 °C.

Molecule `CC(=O)c1cncc(OC2SCC(O)C(O)C2O)c1` (centres undefined) showed a melting point of 209 °C.

As for `CC(C)n1nc(-c2nc(-c3cn[nH]c3)c(N)nc2-c2ccccc2)ccc1=O`, the melting point was above 250 °C.

For `Cc1nc(-c2ccc(OC(F)(F)F)cc2)sc1C(=O)O`, the melting point fell in the range of 179 to 181 °C.

The molecule `COC(=O)c1sc(-c2ccc(C#N)cc2)nc1C` registered a melting point of 186 to 187 °C.

Molecule `CC(=O)N1c2ccc(F)cc2CC1C(N)=O` (centres undefined) registered a melting point of 232 to 235 °C.

On to `O=C1N[C@H](c2ccco2)[C@@H]1O`, for which the melting point lay within 133 to 135 °C.

In turn, `C[C@]12CCC(=O)C=C1CC[C@@H]2c1cn(Cc2ccccc2)nn1` displayed a melting point of 122 to 125 °C.

Molecule `CC(C)(C)OC(=O)N1CCN(c2ccnc3sc(C(N)=O)c(N)c23)CC1` returned a melting point of 198 to 203 °C.

For the molecule `ClCCCCOc1ccc(Br)c(CCOCc2ccccc2)c1`, the melting point lay within 65 to 66 °C.

In turn, `COC(=O)CCC(=O)N(C)c1cccc(OCc2nc3ccccc3s2)c1` had a melting point of 107 to 110 °C.

As for `O=C(Nc1c(Cl)cccc1Cl)N1CCN(c2cnccn2)CC1`, the melting point was 177 to 179 °C.

Molecule `CN(C)CCNc1ccnc2cc(C(F)(F)F)ccc12` displayed a melting point of 110 to 113 °C.

For the molecule `COCCN(c1cccc2cc(-c3nccs3)[nH]c12)S(=O)(=O)c1cccs1`, the melting point lay within 113 to 114 °C.

Consider `CCOC(=O)CCc1c(O)ccc2c(=O)c3cc(C(=O)OC)ccc3oc12`, for which the melting point is above 215 °C.

`CCOc1cc2ncc(C#N)c(Nc3cccc(C(C)=O)c3)c2cc1OCC` displayed a melting point of 191 to 194 °C.

Molecule `O=C(/C=C/c1cccnc1)N1CCN(C(=O)c2cc(C(F)(F)F)cc(C(F)(F)F)c2)[C@H](Cc2c[nH]c3ccccc23)C1` registered a melting point of 86.5 to 89.5 °C.

`CCCOc1ccccc1-c1nc(OCC)cc(=O)[nH]1` had a melting point of 95.5 to 97 °C.

Regarding `Cc1ccccc1C(=O)Nc1ccc(C(=O)N2Cc3cccn3Cc3ccccc32)cc1`, the melting point was 212 to 215 °C.

In turn, `Cc1cccc(-c2ccc(C(=O)O)cc2)c1` registered a melting point of 198 to 200 °C.

Take `C=C1CC2(CC)C(=O)CC(OC(C)=O)C2C2CCC3=CC(=O)CCC3C12` (centres undefined): the melting point was determined as 176 °C.

Take `CCOc1cc(C=CC(C)=O)ccc1O`: the melting point was 98 to 100 °C.

Regarding `CC1CCN(c2cc(C(C)(C)C)ns2)C1=O` (centres undefined), the melting point fell in the range of 111 to 113 °C.

The molecule `Cc1cc(C)cc(C(=O)N2CCC(N3CCC(OC(=O)c4cc(Cl)cc(Cl)c4)CC3)CC2Cc2ccccc2)c1` (centres undefined) had a melting point of 83.3 °C.

For `CCOC(=O)c1nccc(Oc2ccc3c(C(=O)O)cccc3c2)n1`, the melting point is 214 to 217 °C.

In the case of `CCOc1cc(O)cc2c1C(=O)N(COC(=O)c1c(Cl)cccc1Cl)S2(=O)=O`, the melting point is 216 to 217 °C.

On to `CCOC(=O)c1c(C(F)(F)F)nc(C(F)F)c(C(=O)O)c1N`, for which the melting point was in the range of 142 to 151 °C.

For the molecule `O=C(C[C@@H](c1cc(F)cc(F)c1)C(F)(F)F)N1C(=O)OC[C@@H]1Cc1ccccc1`, the melting point lay within 127 to 128 °C.

`O=C(Nc1nccs1)c1c(C(F)(F)F)nc(-c2cccs2)c(-c2ccccc2)c1O` yielded a melting point of 136 °C.

For the molecule `CC(S)CNC(=O)OCc1ccc([N+](=O)[O-])cc1` (centres undefined), the melting point lay in the range of 54 to 56.5 °C.

`Cc1oc(-c2ccccc2)nc1COc1nn(Cc2ccc(Oc3ccccc3)cc2)cc1/C=C/C(=O)O` registered a melting point of 210 to 211 °C.

Take `CCCNC(=O)Nc1ccc(-c2cc3[nH]c(=O)[nH]c3nc2C)cc1`: the melting point is above 300 °C.

On to `N#Cc1c(N2CCCC2)cc(-c2ccccc2)c2c1-c1ccccc1C2`, for which the melting point fell in the range of 158 to 160 °C.

`CC(C)Oc1cc(-n2c(=O)[nH]c(C(F)(F)C(F)(F)F)c(F)c2=O)c(F)cc1Cl` yielded a melting point of 160 to 162 °C.

`Cc1cccc2ncn(C3CCC(=O)NC3=O)c(=O)c12` (centres undefined) had a melting point of 262 to 264 °C.

The molecule `CCCn1c(=O)c2nc(-c3ccc(/C=C/C(=O)O)cc3)[nH]c2n(CC2CCCCC2)c1=O` gave a melting point above 350 °C.

Consider `Cn1c(C(N)=O)nc([N+](=O)[O-])c1C#N`, for which the melting point lay in the range of 265 to 267 °C.

Turning to `O=C1C2CCCCC2=Nc2ccccc2N1Cc1ccccc1` (centres undefined), the melting point lay in the range of 123 to 125 °C.

Consider `Cn1c(-c2ccc([N+](=O)[O-])cc2)cnc1[C@H](Cc1ccccn1)N(C=O)c1cc2cc(F)ccc2o1`, for which the melting point fell in the range of 207 to 208 °C.

In turn, `COC(=O)C1=C(C)NC(C)=C(C(=O)OCCBr)C1c1cccc(Cl)c1Cl` (centres undefined) yielded a melting point of 180 to 182 °C.

As for `O=C(Oc1ccc(-c2ccccc2)cc1)Oc1ccc([N+](=O)[O-])cc1`, the melting point was 138 to 140 °C.

Molecule `C[C@]1(COc2ccc3nc(N4CCC(Cc5ccc(OC(F)(F)F)cc5)CC4)ccc3c2)Cn2cc([N+](=O)[O-])nc2O1` yielded a melting point of 185 to 186 °C.

`CON(C)C(=O)C(Cc1c[nH]c2ccccc12)NC(=O)OC(C)(C)C` (centres undefined) returned a melting point of 129 to 130 °C.

Turning to `CCSCC1=C(O)CC(C)(C)CC1=O`, the melting point worked out at 134 °C.

On to `CCOC(=O)CCCCN(C(=O)c1ccc(Cl)cc1)c1cccc2ccccc12`, for which the melting point was 74 to 75 °C.

Regarding `COc1ccc(-c2cc(C(=O)NCc3ccccn3)c(=O)n(CC3CCCC3)n2)cc1`, the melting point was 127 to 128 °C.

For the molecule `CCC(C(C)=CC(CNC(=O)c1nc(C)[nH]c1C)=NO)[N+](=O)[O-]` (centres undefined), the melting point was 140 to 141 °C.

`Cn1cc(C(=O)Nc2ccccc2-c2ccc(Cl)cc2)c(C(F)(F)F)n1`: the melting point fell in the range of 144 to 146 °C.

Turning to `Cc1cc(Cc2ccccc2)nc(Nc2ccc(-n3ccnc3CO)cc2)n1`, the melting point is 95 to 98 °C.

In turn, `O=c1c2cc(F)c(F)cc2nc(C(S)c2ncnc3[nH]cnc23)n1-c1ccccc1Cl` (centres undefined) came in with a melting point of 208 °C.

Molecule `CCOc1nn(-c2ccc(C(F)(F)F)cn2)cc1CCOc1ccc(CC(=O)O)cc1` came in with a melting point of 142 to 143 °C.

Regarding `FCc1cc(Cl)n2nc(SCc3ccccc3)nc2n1`, the melting point was in the range of 81 to 86 °C.

`Cc1c(NC(=O)CC(C)(C)C)cc2c(c1C)OC(C)(C)C2c1cccs1` (centres undefined) had a melting point of 137 to 138 °C.

In turn, `CC(Cc1c[nH]c2ccccc12)(NC(=O)OC(CF)C(F)F)C(=O)NCCc1ccccn1` (centres undefined) returned a melting point of 65 to 67 °C.

In the case of `Cc1cc(-c2cccc(NC(=O)C(C)(C)C)c2)cc2c1[C@H]1CCC(=O)N(C)[C@@H]1CC2`, the melting point is 95 to 98 °C.

The molecule `COCCOc1ccc(/C=C/CO)c(Oc2ncc(C(F)(F)F)cc2Cl)c1` showed a melting point of 119 to 121 °C.

Take `COc1ccc(C2CCN(c3c(C)c(C)c4c(c3C)C(c3ccccc3)C(C)(C)O4)CC2)cc1OC` (centres undefined): the melting point is 118 to 120 °C.

Consider `CN1CCCc2ccc(NC(=O)c3cc4cc(F)ccc4n3Cc3cccc(F)c3)cc21`, for which the melting point is 159 to 160 °C.

For the molecule `CCNC1(C(N)=O)C=C2C(=Nc3ccccc32)C=N1` (centres undefined), the melting point fell in the range of 233 to 236 °C.

In turn, `CC(=O)c1cc(C(=O)c2ccccc2Cl)c(N)s1` displayed a melting point of 190 to 191 °C.

In turn, `O=C(O)c1cc(SC(F)(F)F)c(-c2ccc(Cl)cc2)[nH]1` gave a melting point of 176 to 178 °C.

For `Fc1ccc(Cl)c2oc(CCC#Cc3ccccn3)nc12`, the melting point is 102 to 103 °C.

In turn, `OCC1OC(n2c(Cl)nc3ccc(Cl)cc32)C(O)C1O` (centres undefined) came in with a melting point of 162 to 163 °C.
